Results as given in patent US20220332758A1, “PEPTIDE-BASED COMPOSITIONS AND METHODS FOR TREATING ALZHEIMER'S DISEASE” (Board of Regents, The Universityof Texas System, priority 2019, published 2022).
“Also recorded” adds a separate entry of the source.

What was measured:
[1] = biological target: T1, proteasome ChT-L activity in SK-N-SH (ATCC HTB-11) cells (Homo sapiens, UniProt P25787+P60900); assay: ChT-L proteasome activity in lysates of SK-N-SH cells treated with TAT peptides; assay type: cell-based; details: for proteasome ChT-L activity in lysates from treated cells vs control lysates: 1 μM, 24 h
T1 construct: host or cells: SK-N-SH human neuroblastoma cells
Description: Cell Culture. Human SK-N-SH neuroblastoma cell line (ATCC® HTB-11™ American Type Culture Collection; Manassas, Va.) were cultured according to ATCC specifications (EMEM, 10% heat-inactivated FBS) The cells at passage 2-4 were treated with 1 μM TAT peptides or the DMSO vehicle diluted with the medium 1: 1000, for 24 h. The content of live cells was determined by the Trypan Blue-exclusion assay. The cells were harvested, washed twice in PBS, resuspended in dilution buffer (as described herein) and stored in −80° C. To prepare lysates, the thawed preparations were vortexed with glass beads and centrifuged for 5 min 5,000×g (4° C.). The supernatant was centrifuged for 20 min 14,000×g (4° C.). The resulting supernatant—“crude lysate” was diluted to 1 mg/mL of total protein with dilution buffer. 1 μg of lysate per assay (reaction buffer: 50 mM Tris/HCl pH 8, 0.1 mM MgCl2, 0.2 mM ATP, 0.1 mM dithiothreitol, 50 μM Suc-LLVY-AMC (SEQ ID NO: 14)) was used for determination of ChT-L activity in a 96-well format, as above.

[2] = biological target: T2, α face pockets of the 20S core proteasome (Homo sapiens, UniProt P25787+P60900); assay: Competition of TAT peptides with Rpt C-terminal tail peptides for α face pockets (ChT-L activity of 20S); assay type: biochemical; details: for enhanced activation with Rpt tails: 1 μM Rpt peptide; for competition with Rpt tail peptides: 1 μM Rpt peptide added before the TAT peptide
T2 construct: purified from erythrocytes; purchased Boston Biochem, Inc. or Enzo Life Sciences, Inc; host or cells: human erythrocytes
Excerpt: As mentioned herein, the binding pockets on the α face accept “anchors” from natural protein ligands of the 20S core. […] The 10-residue Rpt-derived C-terminal “tail” peptides (“Rpt peptides”) can be used as competitors with the Rpt subunits or with small allosteric ligands. Importantly, the Rpt peptides interject between the subunits with their C-termini, whereas TAT peptides, according to the modeling, use their N-termini for this purpose. To test the specificity of interactions between TAT compounds and the α face, competition experiments were performed. The 20S core was challenged with selected TAT compounds after treatment with Rpt peptides. Peptides of Rpt2 ([…]; SEQ ID NO: 10), Rpt3 ([…]; SEQ ID NO: 11), Rpt5 ([…]; SEQ ID NO: 12) and Rpt6 ([…]; SEQ ID NO: 13) subunits were selected, docking in α3/α4, α1/α2, α5/α6 and α2/α3 pockets, respectively. Tails of Rpt2, 3, and 5 display the canonical HbYX motif, whereas the LeuTrpLys C-terminus of Rpt6 may be considered “pseudo-HbYX”, with a bulky Trp replacing Tyr. Results of the competition experiments are presented as radar plots in FIG. 15. […] This pocket also emerged as the major binding site for (1) and (8). However, these compounds likely weakly competed with the Rpt2 tail for binding to the α3/α4 pocket as well. The α3/α4 pocket seemed to be favored by (6). […] These complex patterns point at the importance of allosteric effects between the α face ligands, the gate and the catalytic chamber.
Determination of Proteasome Activity. Human housekeeping core (20S) proteasome purified from erythrocytes was purchased from Boston Biochem, Inc. (Cambridge, Mass.) or from Enzo Life Sciences, Inc. (Farmingdale, N.Y.). Multiple batches of the proteasomes were used and performed reproducibly. The stock proteasome was diluted to 0.2 mg/mL working solution in “dilution buffer” (50 mM Tris/HCl, pH 8, 20% glycerol). The following model peptide substrates, releasing fluorescent 7-amino-4-methylcoumarin (AMC) reporter group after cleavage, were used: succinyl-LeuLeuValTyr-AMC (SEQ ID NO: 14) (for the ChT-L peptidase; SucLLVY-AMC; Bachem Bioscience Inc., Philadelphia, Pa.), butoxycarbonyl-LeuArgArg-AMC (T-L; Bachem Bioscience Inc., Philadelphia, Pa.) and carbobenzoxy-LeuLeuGlu-AMC (PGPH; Enzo Life Sciences Inc., Farmingdale, N.Y.). The substrates were used at concentration of 50 μM (ChT-L) or 100 μM (T-L, PGPH). Free AMC (Sigma-Aldrich, St. Louis, Mo.) was used as the standard. The C-terminal peptides derived from Rpt2, Rpt3, Rpt5 and Rpt6 were synthesized (standard solid-phase peptide chemistry) and purified to at least 98% purity by GenScript (Piscataway, N.J.). The TAT peptides, Rpt peptides (except Rpt6) and the peptide substrates were dissolved in anhydrous dimethylsulfoxide (DMSO; Sigma-Aldrich, St. Louis, Mo.) and such stock solutions were stored at −20° C. The total concentration of DMSO in final reaction mixtures never exceeded 3% (vol/vol). The Trp (tryptophan)-containing Rpt6 peptide was dissolved in ultrapure water and stored at −20° C., protected from light. The reaction was carried out in 96-well plates, in 100 μL of reaction mixture that consisted of 45 mM Tris/HCl, pH 8, 100 mM KCl, 1 mM EDTA (reaction buffer) and a fluorogenic peptide substrate, to which 200 ng (nearly […]) of proteasome were added. The addition of KCl/EDTA (ethylenediaminetetraacetic acid) to reaction buffer assured latency of the core proteasome. The proteasome was preincubated with a substrate for 10 min at room temperature, then 1 μL of DMSO or a desired concentration of a TAT peptide in 1 μL of DMSO were added. After mixing, the plate was transferred to a Fluoroskan Ascent plate reader (Thermo Fisher Scientific Inc., Waltham, Mass.) for 1 h (37° C.), with fluorescence readouts once per minute. To test the competition with Rpt derived peptides, the Rpt peptide (1 μM) was added before the TAT peptide to the reaction mixture. […]

human 26S proteasome = biological target: T3, human 26S proteasome (Homo sapiens, UniProt P25787+P60900); assay: Chymotrypsin-like activity of purified human 26S proteasome, Suc-LLVY-MCA substrate; assay type: biochemical; details: in vitro
T3 construct: purchased Boston Biochemicals (Boston Biochem)

[3] = tested on: elav-GS-Gal4>UAS-APP, UAS-Bace1 flies; assay: Spontaneous activity in fly AD model; assay type: in vivo, Drosophila melanogaster; details: 1 μM in food
Description: Spontaneous activity and circadian rhythm. Spontaneous activity was monitored using a Trikinetic activity monitor, in which vials containing 20-25 flies were secured and activity recorded in a humidified 24° C. incubator with 12:12-hour light:dark cycles as described herein. Flies were allowed to acclimate for 8 hours prior to data collection. Activity was averaged for each twelve-hour cycle and normalized per fly.

[4] = tested on: Elav-gs-GAL4>UAS-APP; UAS-BACE1 flies; assay: Olfaction aversion training in fly AD model; assay type: in vivo, Drosophila melanogaster; details: 1 μM mixed into food, 10 days
Description: Olfactory aversion training. Experiments were performed broadly (Malik, B. R. & Hodge, J. J. J Vis Exp, e50107, doi:10.3791/50107 (2014)). Animals were exposed (via an air pump) in alternation to two neutral odors (3-octanol and 4-methylcyclohexanol, prepared as a 1/10 dilution in mineral oil) for 5 minutes under low red-light and a 100V 60 Hz shock was applied during exposure to one of the two odors. The odor associated with the electric shock was alternated between vials. After three training rounds per odor, animals were given one hour to recover then placed in a T-maze (Celexplorer labs) with opposing odors from either side. Flies were allowed two minutes to explore the maze after which the maze sections were sealed and the number of flies in each chamber scored.
The compounds were tested as follows: in neuroblast MC65 cell culture model with overexpressed C99 fragment of amyloid precursor protein (APP) upon tetracycline withdrawal or with external APP added; and in fruit fly (D. melanogaster) model of AD with overexpressed APP and BACE1. The compounds (1 μM) were mixed with food. Flies were trained to recognize “positive” and “negative” odors (olfaction aversion). The compounds were also treated in hAPP (J20) mice which overexpress a familial variant of APP. The compounds were injected for 14 days (1 mg/kg). Novel Object Recognition assay was used to test learning and memory.

Row | SMILES | proteasome ChT-L activity in lysates from treated cells vs control lysates [1] | dose and time dependence of proteasome activation in cells ([1]; 0.5 or 1.0 μM, four or 24 h) | enhanced activation with Rpt tails [2] | competition with Rpt tail peptides [2] | activation of 26S proteasome (in words) (human 26S proteasome) | spontaneous activity [3] | olfaction aversion training performance [4]
1 | N=C(N)NCCCC(NC(=O)CN)C(=O)NC(CCCCN)C(=O)NC(CCCCN)C(=O)NC(CCCNC(=N)N)C(=O)NC(CCCNC(=N)N)C(=O)NC(CCC(N)=O)C(=O)N1Cc2ccccc2C[C@H]1C(=O)N1C(C(=O)NC(CCCNC(N)N)C(=O)N2CCCC2C(=O)NC(CO)C(=O)O)CC2CCCCC21 (stereo partly shown) [(5), GRKKRRQ-TOD-RPS] | significantly higher than activity in control lysates | substantially stronger after 4 h exposure than after 24 h | enhanced activation in the presence of one of Rpt tails, namely Rpt5 or Rpt6 | the Rpt3 peptide (α1/α2 pocket) was its sole competitor; also recorded: competed fairly specifically with Rpt3 tail | strongly activate | increased spontaneous activity | Improved performance in olfaction aversion training
2 | NCCCCC(N)C(=O)NC(CCCCN)C(=O)NC(CCCCN)C(=O)Nc1cc(NC(=O)C(CCCCN)NC(=O)C(CCCCN)NC(=O)C(N)CCCCN)cc(C(=O)NC(CCCCN)C(=O)NC(CCCCN)C(=O)NC(CCCCN)C(=O)O)c1 (stereo not shown) [(8)] | significantly higher than activity in control lysates | – | enhanced activation in the presence of one of Rpt tails, namely Rpt5 or Rpt6 | weakly negative score for the Rpt2 tail to the presumed major competitor Rpt3 | excellent activator | increased spontaneous activity | Improved performance in olfaction aversion training
